pIC50: −log10 of the molar value.

Type in all cases: cell-based
Assay [1] deals with Cisplatin resistant cell lines. In words: Mean IC50 (MTT assay) on Cisplatin resistant cell lines. The procedure: Thus, it can be concluded that the biological activity is mediated by a longer chain (butoxy) at the meta-position, whereas the ortho- and para-positions are more suitable with a shorter chain (ethoxy). To have a further look at the influence of the different ligand systems and substitution patterns, all β-Hydroxydithiocinnamic acid alkyl esters were tested under same conditions as their derived ruthenium(II) complexes (Figure 5B, Supplementary Table S3). […] All ligands are less cytotoxic than Cisplatin itself and therefore the metal(II) center is necessary for the high cytotoxic activity, what is in clear contrast to the literature for O,S-chelating ruthenium(II) or osmium(II) compounds with thiomaltol ligand [48, 71] but confirmed for Ru(II)/Os(II) compounds with N,N-bidentate glycosyl heterocyclic ligands. This is exemplarily shown by the comparison of mean IC50 values for Cisplatin, L14, and Ru14 (Supplementary Figure S8).
(§1) Ovarian cancer cell lines were cultured under standard conditions (5% CO2, 37 °C, 90% humidity) in RPMI medium supplemented with 10% FCS, 100 U/mL penicillin and 100 µg/mL streptomycin (Life Technologies, Dreieich, Germany). Cisplatin (Sigma, Taufkirchen, Germany) was freshly dissolved at 1 mg/mL in 0.9% NaCl solution and diluted appropriately. New ruthenium(II) complexes and ligands were dissolved in dmso. Platinum-resistant A2780 and SKOV3 cells were established by repeated rounds of 3-day incubations with increasing amounts of Cisplatin starting with 0.1 µM. The concentration was doubled after 3 incubations, interrupted by recovery phases with normal medium. […] Determinations of IC50 values were carried out using the CellTiter96 non-radioactive proliferation assay (MTT assay, Promega, Mannheim, Germany). After seeding 5000 cells per well in a 96-well plate, cells were allowed to attach for 24 h and were incubated for 48 h with different concentrations of the substances ranging from 0 to 500 µM for Ruthenium and 0 to 1000 µM for ligand tests (0, 1, 10, 50, 100, 500, 1000 µm), for Cisplatin from 0 to 100 µM (0.1, 1, 5, 10, 50, 100 µM). Each measurement was done in triplicate and repeated 3 times. The proportion of viable cells was quantified by the MTT assay and after background subtraction relative values compared to the mean of medium controls were calculated. Non-linear regression analyses applying the Hill slope were run in GraphPad 5.0 software.

The test system of assay [2] is A549. In words: MTT assay (CellTiter96), cytotoxic activity. The note with it: lung carcinoma cell line, 48 h incubation. Here is the method:
(§2) The biological behaviour of all substances was characterized by their cytotoxic activity against a panel of cell lines enabling an understanding of the structure-activity relationship. Cytotoxic activity was determined on ovarian carcinoma cell lines SKOV3 and A2780 as well as their Cisplatin resistant analogues (SKOV3cis and A2780cis) and the lung carcinoma cell line A549. Due to a low solubility in water, dmso is used as a solvent for the preparation of a dilution series in cell culture experiments. The toxic influence of dmso was determined earlier and experiments were carried out with 0.5% dmso in cell culture media and this concentration was used as reference sample in each MTT assay (details: Section 3). […] Resistance factors (RF) were determined for all substances (for IC50 values and RF of β-Hydroxydithiocinnamic acid esters L1–L18, see Tables S2 and S3, Supplementary part). All investigated ruthenium(II) compounds show lower RF values than Cisplatin on ovarian carcinoma cell lines, ranging from 0.2 to 1.5 (Table 3). Whereas the IC50 values on the non-resistant cell lines are in most cases higher than the IC50 of the reference substance, no increase of IC50 values is observed for the resistant cell lines. Contrary, eight ruthenium complexes show lower IC50 values on SKOV3cis than Cisplatin and four compounds on A2780cis. Thus, it can be concluded that these compounds are able to bypass the Cisplatin resistance mechanism in these cell lines pointing to a different mechanism of action.
as §1
In general terms: Tetrazolium dyes change colour on reduction, which living cells bring about.

Assay [3] deals with SKOV3cis. In words: MTT assay (CellTiter96), cytotoxic activity. As to conditions: for pIC50: Cisplatin resistant SKOV3, MTT assay, 48 h incubation; for RF SKOV3 (resistance factor): SKOV3cis vs SKOV3. Here is the method:
as §2, §1

In assay [4] the test system is SKOV3. In words: MTT assay (CellTiter96), cytotoxic activity. As to conditions: 48 h incubation. Here is the method: as §2, §1
The subject of assay [5] is A2780cis. Description: MTT assay (CellTiter96), cytotoxic activity. As to conditions: for RF A2780 (resistance factor): A2780cis vs A2780; for pIC50: Cisplatin resistant A2780, MTT assay, 48 h incubation. Here is the method: as §2, §1
Assay [6] has as its system A2780. In words: MTT assay (CellTiter96), cytotoxic activity. The note with it: 48 h incubation. The procedure:
as §2, §1

In general, pIC50 refers to the IC50 on a negative log10 scale, so that one unit is a factor of ten. A lower pIC50 goes with a large IC50. Take `CCSC(=S)C=C([O][Ru][Cl])c1ccccc1.Cc1ccc(C(C)C)cc1` [Ru2, [(η^6-p-cymene)Ru(1-phenyl-3-(ethylthio)-3-thioxo-prop-1-en-1-olate-O,S)Cl]]: the “mean IC50 value on Cisplatin resistant cell lines compared with Cisplatin” value in assay [1] is given as “lower”. In addition, the pIC50 in assay [2] was 4.91; in assay [3] it was 4.95; in assay [4] it was 4.80; in assay [5], 5.32; in assay [6] it was 5.00. The “RF SKOV3 (resistance factor)” value in assay [3] turned out to be 0.7. Besides, the “RF A2780 (resistance factor)” value in assay [5] stood at 0.48.
Turning to `CSC(=S)C=C([O][Ru][Cl])c1ccc(O)cc1.Cc1ccc(C(C)C)cc1` [Ru4, [(η^6-p-cymene)Ru(1-(4-hydroxyphenyl)-3-(methylthio)-3-thioxo-prop-1-en-1-olate-O,S)Cl]], the pIC50 is 4.58 in assay [2]; 4.55 in assay [3]; 4.66 in assay [4]; 4.67 in assay [5]; 4.67 in assay [6]. Besides, the “RF SKOV3 (resistance factor)” value in assay [3] is 1.3. Besides, in assay [5], the “RF A2780 (resistance factor)” value was 1.
Regarding `CCSC(=S)C=C([O][Ru][Cl])c1cccc(O)c1.Cc1ccc(C(C)C)cc1` [Ru5, [(η^6-p-cymene)Ru(1-(3-hydroxyphenyl)-3-(ethylthio)-3-thioxo-prop-1-en-1-olate-O,S)Cl]], the “mean IC50 value on Cisplatin resistant cell lines compared with Cisplatin” value in assay [1] is “lower”. For the same molecule, the pIC50 was 4.94 in assay [2]; 5.03 in assay [3]; 4.81 in assay [4]; 5.09 in assay [5]; 4.35 in assay [6]. The “RF SKOV3 (resistance factor)” value in assay [3] is 0.6. In addition, in assay [5], the “RF A2780 (resistance factor)” value is reported as 0.2.
Regarding `CCSC(=S)C=C([O][Ru][Cl])c1ccc(O)cc1.Cc1ccc(C(C)C)cc1` [Ru6, [(η^6-p-cymene)Ru(1-(4-hydroxyphenyl)-3-(ethylthio)-3-thioxo-prop-1-en-1-olate-O,S)Cl]], the negative-log IC50 (pIC50) in assay [2] is 4.31; in assay [3], 4.65; in assay [4], 4.54; in assay [5] it was 4.82; in assay [6], 4.81. In addition, the “RF SKOV3 (resistance factor)” value in assay [3] is on record as 0.8. In addition, the “RF A2780 (resistance factor)” value in assay [5] was 1.
Take “[(η^6-p-cymene)Os(1-(2-ethoxyphenyl)-3-(methylthio)-3-thioxo-prop-1-en-1-olate-O,S)] [Os13]”: the negative-log IC50 (pIC50) in assay [2] is 5.51; in assay [3] it was 5.15; in assay [4], 5.39; in assay [5], 6.10; in assay [6], 6.52. Moreover, the “RF SKOV3 (resistance factor)” value in assay [3] was 1.7. Further, the “RF A2780 (resistance factor)” value in assay [5] was 2.7.
As for “[(η^6-p-cymene)Os(1-(2-methoxyphenyl)-3-(methylthio)-3-thioxo-prop-1-en-1-olate-O,S)] [Os7]”, the negative logarithm of the IC50 (pIC50) in assay [2] is 5.21; in assay [3], 6.22; in assay [4], 5.06; in assay [5], 5.68; in assay [6] it was 6.40. Besides, the “RF SKOV3 (resistance factor)” value in assay [3] worked out at 0.1. In addition, in assay [5], the “RF A2780 (resistance factor)” value was found to be 5.3.
Turning to “[(η^6-p-cymene)Os(1-(3-ethoxyphenyl)-3-(methylthio)-3-thioxo-prop-1-en-1-olate-O,S)] [Os14]”, the negative-log IC50 (pIC50) in assay [2] was 5.26; in assay [3], 4.92; in assay [4] it was 4.98; in assay [5], 5.89; in assay [6], 6.52. Moreover, the “RF SKOV3 (resistance factor)” value in assay [3] came to 1.2. Moreover, in assay [5], the “RF A2780 (resistance factor)” value was 4.3.
Turning to “[(η^6-p-cymene)Ru(1-(2-ethoxyphenyl)-3-(methylthio)-3-thioxo-prop-1-en-1-olate-O,S)] [Ru13]”, the pIC50 in assay [2] is 4.55; in assay [3] it was 4.76; in assay [4], 4.77; in assay [5] it was 5.32; in assay [6], 5.59. Besides, the “RF SKOV3 (resistance factor)” value in assay [3] is recorded as 1. The “RF A2780 (resistance factor)” value in assay [5] is reported as 1.8.
Consider “[(η^6-p-cymene)Ru(1-(2-methoxyphenyl)-3-(ethylthio)-3-thioxo-prop-1-en-1-olate-O,S)] [Ru10]”, for which the negative logarithm of the IC50 (pIC50) in assay [2] was 4.56; in assay [3], 4.75; in assay [4] it was 4.56; in assay [5] it was 4.93; in assay [6] it was 4.84. Also, in assay [3], the “RF SKOV3 (resistance factor)” value came to 0.6. The “RF A2780 (resistance factor)” value in assay [5] is reported as 0.8.
Take “[(η^6-p-cymene)Ru(1-(2-methoxyphenyl)-3-(methylthio)-3-thioxo-prop-1-en-1-olate-O,S)] [Ru7]”: the negative logarithm of the IC50 (pIC50) in assay [2] was 4.82; in assay [3], 4.75; in assay [4], 4.65; in assay [5], 4.82; in assay [6], 4.79. Besides, the “RF SKOV3 (resistance factor)” value in assay [3] turned out to be 0.8. Also, in assay [5], the “RF A2780 (resistance factor)” value is recorded as 0.9.
For the molecule “[(η^6-p-cymene)Ru(1-(3-butoxyphenyl)-3-(methylthio)-3-thioxo-prop-1-en-1-olate-O,S)] [Ru16]”, the pIC50 in assay [2] was 5.31; in assay [3], 4.88; in assay [4], 4.88; in assay [5] it was 5.17; in assay [6] it was 5.27. Besides, in assay [3], the “RF SKOV3 (resistance factor)” value came to 1. The “RF A2780 (resistance factor)” value in assay [5] is on record as 1.3.
On to “[(η^6-p-cymene)Ru(1-(3-methoxyphenyl)-3-(ethylthio)-3-thioxo-prop-1-en-1-olate-O,S)] [Ru11]”, for which the negative logarithm of the IC50 (pIC50) in assay [2] was 4.72; in assay [3] it was 4.77; in assay [4] it was 4.77; in assay [5], 4.93; in assay [6], 4.81. For the same molecule, in assay [3], the “RF SKOV3 (resistance factor)” value is recorded as 1. The “RF A2780 (resistance factor)” value in assay [5] was 0.8.
On to “[(η^6-p-cymene)Ru(1-(3-methoxyphenyl)-3-(methylthio)-3-thioxo-prop-1-en-1-olate-O,S)] [Ru8]”, for which the negative-log IC50 (pIC50) in assay [2] was 4.86; in assay [3], 4.69; in assay [4], 4.67; in assay [5], 4.77; in assay [6] it was 4.84. In assay [3], the “RF SKOV3 (resistance factor)” value amounted to 1. Further, in assay [5], the “RF A2780 (resistance factor)” value is 1.2.
For the molecule “[(η^6-p-cymene)Ru(1-(4-butoxyphenyl)-3-(methylthio)-3-thioxo-prop-1-en-1-olate-O,S)] [Ru17]”, the negative logarithm of the IC50 (pIC50) in assay [2] is 4.82; in assay [3], 4.76; in assay [4], 4.76; in assay [5] it was 5.01; in assay [6] it was 4.85. For the same molecule, the “RF SKOV3 (resistance factor)” value in assay [3] is reported as 1. For the same molecule, the “RF A2780 (resistance factor)” value in assay [5] is on record as 0.7.
“[(η^6-p-cymene)Ru(1-(4-methoxyphenyl)-3-(ethylthio)-3-thioxo-prop-1-en-1-olate-O,S)] [Ru12]”: the negative-log IC50 (pIC50) in assay [2] was 5.16; in assay [3], 4.90; in assay [4], 4.62; in assay [5], 5.00; in assay [6], 4.96. Besides, the “RF SKOV3 (resistance factor)” value in assay [3] turned out to be 0.5. Besides, the “RF A2780 (resistance factor)” value in assay [5] turned out to be 0.9.
In the case of “[(η^6-p-cymene)Ru(1-(4-methoxyphenyl)-3-(methylthio)-3-thioxo-prop-1-en-1-olate-O,S)] [Ru9]”, the pIC50 in assay [2] is 4.40; in assay [3], 4.90; in assay [4], 4.60; in assay [5], 4.79; in assay [6] it was 4.62. Further, the “RF SKOV3 (resistance factor)” value in assay [3] was determined as 0.5. In addition, the “RF A2780 (resistance factor)” value in assay [5] is recorded as 0.7.

Source of the values: article PMC9102668, “Highly Cytotoxic Osmium(II) Compounds and Their Ruthenium(II) Analogues Targeting Ovarian Carcinoma Cell Lines and Evading Cisplatin Resistance Mechanisms” (International Journal of Molecular Sciences, 2022).
